Test [1] relates to pAKT in BT474 cells. Nature of the test: Cell-based pAKT HTRF assay in BT474 cells. The settings on record: BT474 cells, 4 hr incubation, read-out: pAKT inhibition IC50 in BT474 cells. The method, boiled down: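 Treatment lasts 4 hr in DMEM/10% FBS at 0.25% DMSO over nine 3-fold dilutions from 3 μM. The lysate is then probed by HTRF.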
Background: In TR-FRET formats the signal depends on donor and acceptor labels being close together.

Test [2] has as its target Cys242 in human PIK3CA (157-299) (Homo sapiens (Human), UniProt P42336). Put plainly: Covalent modification assay using MALDI-TOF MS. The test is classed as biochemical. The conditions noted are these: 4 h reaction time point. A digest of the protocol: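 Covalent adduct formation was read by linear-mode MALDI-TOF with sinapinic acid matrix, reported as modified-protein peak height divided by total protein peak heights. Reactions held PIK3CA (157-299) at 1 or 3.33 μM in HEPES/NaCl/MgCl2 buffer, pH 7.3, sampled after 15 min to 4 h at room temperature.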

[3] abbreviates: 3.33 μM protein target, 1:7.5 protein to compound ratio (compounds 1-852).
[4] abbreviates: 1 μM protein target, 1:5 protein to compound ratio (compounds 853-1279).

Like-named read-outs stand apart in the source and are kept apart here.

Chain of Cys242 in human PIK3CA (157-299) (P42336 157-299): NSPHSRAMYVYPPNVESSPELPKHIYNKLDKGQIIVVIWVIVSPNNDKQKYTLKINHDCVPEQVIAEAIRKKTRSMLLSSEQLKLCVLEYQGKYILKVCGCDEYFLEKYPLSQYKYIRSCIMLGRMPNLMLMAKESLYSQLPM

A word on the IC50: it is the concentration at which inhibition is half-maximal. For `C=CC(=O)N1CCc2nc(-c3nc(-c4ccc5c(c4)CNC5=O)c4ccsc4c3-c3c(F)cc(F)cc3OC(C)C)sc2C1` (single isomer, unassigned) [Compound 413], the IC50 in test [1] (Compounds 10-999) lay within 1 to 3 µM. Besides, the “% of modification” value in test [2] (setting [3]) is “D (percent of modification <25%)”.
`C=CC(=O)N1CCc2nc(-c3nc(-c4cccc(C(C)(C)C#N)c4)c4ccsc4c3-c3c(F)cc(F)cc3OCCOC)sc2C1` [Compound 440]: the half-inhibitory concentration (IC50) in test [1] (Compounds 10-999) fell in the range of 0.1 to 1 µM. The “% of modification” value in test [2] (setting [3]) is on record as “D (percent of modification <25%)”.
Take `C=CC(=O)N1CCn2nc(-c3nc(-c4ccc5ncn(C)c5c4)c4ccsc4c3-c3c(F)cc(F)cc3OCCOC)cc2C1C` (stereo not shown) [Compound 552]: the IC50 in test [1] (Compounds 10-999) is less than 0.1 µM. Further, the “% of modification” value in test [2] (setting [3]) is on record as “A (percent of modification of PIK3CA protein ≥75%)”.
As to `C=CC(=O)N1Cc2cc(-c3nc(C45CC(CN(C)C)(C4)C5)c4ccsc4c3-c3c(F)cc(F)cc3OCCOC)nn2C[C@H]1C` [Compound 1168, 1-((6R)-2-(7-(2,4-difluoro-6-(2-methoxyethoxy)phenyl)-4-(3-((dimethylamino)methyl)bicyclo[1.1.1]pentan-1-yl)thieno[3,2-c]pyridin-6-yl)-6-methyl-6,7-dihydropyrazolo[1,5-a]pyrazin-5(4H)-yl)prop-2-en-1-one], the IC50 in test [1] (Homo sapiens, BT-474, Compounds 1000-1279) was in the range of 0.1 to 1 µM. Further, in test [2] (setting [4]), the “% of modification” value was “B (50%<percent of modification <75%)”.
Consider `C=CC(=O)N1CCC(n2cc(-c3nc(-c4cnn5c4NCCC5)c4ccsc4c3-c3ccc(F)cc3OCCOC)cn2)CC1` [Compound 68], for which, in test [1] (Compounds 10-999), the half-maximal inhibitory concentration (IC50) is 0.1 to 1 µM. Also, the “% of modification” value in test [2] (setting [3]) is given as “A (percent of modification of PIK3CA protein ≥75%)”.
With `C=CC(=O)N1CC(n2cc(-c3nc(-c4ccnc(N)c4)c4ccsc4c3-c3ccc(F)cc3OCCOC)cn2)C1` [Compound 234], the IC50 in test [1] (Compounds 10-999) was less than 0.1 µM. Besides, the “% of modification” value in test [2] (setting [3]) is given as “A (percent of modification of PIK3CA protein ≥75%)”.
With `C=CC(=O)N1CCn2nc(-c3nc(-c4ccnc(OCCN(C)C)c4)c4ccsc4c3-c3c(F)cc(F)cc3OCCOC)cc2C1C` (stereo not shown) [Compound 1199], the IC50 in test [1] (Compounds 1000-1279) was less than 0.1 µM. Besides, in test [2] (setting [4]), the “% of modification” value is “A (percent of modification of PIK3CA protein ≥75%)”.
As to `C=CC(=O)N1Cc2cc(-c3nc(-c4ccc5nn(C)cc5c4)c4ccsc4c3-c3c(F)cc(F)cc3OC[C@@H](C)O)nn2C[C@H]1C` [Compound 754], the IC50 in test [1] (Compounds 10-999) is less than 0.1 µM. In test [2] (setting [3]), the “% of modification” value was “A (percent of modification of PIK3CA protein ≥75%)”.
Regarding `C=CC(=O)N1CCn2nc(-c3nc(-c4ccn(C5CN(C)C5)c(=O)c4)c4ccsc4c3-c3c(F)cc(F)cc3OCCOC)cc2C1C` (stereo not shown) [Compound 1080], the IC50 in test [1] (Compounds 1000-1279) was less than 0.1 µM. For the same compound, the “% of modification” value in test [2] (setting [4]) is reported as “A (percent of modification of PIK3CA protein ≥75%)”.
The like results for `C=CC(=O)N1CCn2nc(-c3nc(-c4cccc(C(=O)N5CC(N(C)C)C5)c4)c4ccsc4c3-c3c(F)cc(F)cc3OCCOC)cc2C1C` (stereo not shown) [Compound 1142] were, in that order, less than 0.1 µM and “A (percent of modification of PIK3CA protein ≥75%)”.
Take `C=CC(=O)N1CCn2nc(-c3nc(-c4ccc(C5CCCN5C)cc4)c4ccsc4c3-c3c(F)cc(F)cc3OCCOC)cc2C1C` (stereo not shown) [Compound 1224]: the IC50 in test [1] (Compounds 1000-1279) was less than 0.1 µM. Besides, the “% of modification” value in test [2] (setting [4]) is on record as “A (percent of modification of PIK3CA protein ≥75%)”.
For the compound `C=CC(=O)N1Cc2cc(-c3nc(-c4cnn(CC(C)(C)O)c4)c4ccsc4c3-c3c(F)cc(F)cc3OC(C)C)nn2CC1C` (stereo not shown) [Compound 490], the IC50 in test [1] (Compounds 10-999) is less than 0.1 µM. Also, the “% of modification” value in test [2] (setting [3]) is given as “A (percent of modification of PIK3CA protein ≥75%)”.
As for `C=CC(=O)N1Cc2cc(-c3nc(-c4cnc5cn(C)nc5c4)c4ccsc4c3-c3c(F)cc(F)cc3OCCOC)nn2C[C@H]1C` [Compound 818], the IC50 in test [1] (Compounds 10-999) is less than 0.1 µM. The “% of modification” value in test [2] (setting [3]) is recorded as “A (percent of modification of PIK3CA protein ≥75%)”.
Turning to `C=CC(=O)N1Cc2cc(-c3nc(-c4cnn(C)c4)c4ccsc4c3-c3c(F)cc(F)cc3OCCO)nn2C[C@H]1C` [Compound 673], in test [1] (Compounds 10-999), the half-inhibitory concentration (IC50) was in the range of 0.1 to 1 µM. For the same compound, the “% of modification” value in test [2] (setting [3]) is given as “D (percent of modification <25%)”.

The record behind these values is patent publication US20250230138A1, “COMPOUNDS HAVING A T-STRUCTURE FORMED BY AT LEAST FOUR CYCLES FOR USE IN THE TREATMENT OF CANCER AND OTHER INDICATIONS” (TheRas, Inc., priority 2022, published 2025).
